We go through four compounds from patent US20060293307A1, “Oxazolidinone derivatives as antimicrobials” (priority 2002, published 2006).

Values after ≈ are worked out from the molar mass of the structure shown. Like-named read-outs stand apart in the source and are kept apart here. Some results are limits rather than exact numbers.

The subject of one experiment is M. avium AIIMS. Description: MIC against MAC strains, agar dilution. The class given is cell-based, Mycobacterium avium. The conditions noted are these: S. No. 04 Ma-4, M. avium AIIMS, Middle Brook 7H10 + OADC, 37° C., 14-21 days. On the technique in general: In agar dilution the substance is mixed into plates at graded concentrations.
Experiment [1] deals with M. tuberculosis SGPGI. The experiment can be described thus: MIC against M. tuberculosis strains, agar dilution. In kind it is cell-based, Mycobacterium tuberculosis. As to conditions: S. No. 07 Mt-, Middle Brook 7H10 + OADC, 37° C., 14-21 days.
Another experiment concerns M. intracellulare F21/12. The experiment can be described thus: MIC against MAC strains, agar dilution. In kind it is cell-based. The conditions noted are these: S. No. 08 Mi-3, M. intracellulare F21/12, Middle Brook 7H10 + OADC, 37° C., 14-21 days.
In experiment [2] the test system is M. avium intracellulare 18/98. The experiment can be described thus: MIC against MAC strains, agar dilution. The conditions noted are these: S. No. 16 Mai-9, M. avium intracellulare 18/98, Middle Brook 7H10 + OADC, 37° C., 14-21 days. In kind it is cell-based.
The next experiment concerns M. avium ATCC 1723. The experiment can be described thus: MIC against MAC strains, agar dilution. The class given is cell-based, Mycobacterium avium. The conditions noted are these: S. No. 03 Ma-3, M. avium ATCC 1723, Middle Brook 7H10 + OADC, 37° C., 14-21 days.
A further experiment deals with M. avium ATCC 49601. Description: MIC against MAC strains, agar dilution. In kind it is cell-based, Mycobacterium avium. The conditions noted are these: S. No. 01 Ma-1, M. avium ATCC 49601, Middle Brook 7H10 + OADC, 37° C., 14-21 days.
The test system of a further experiment is M. tuberculosis H37Rv. The experiment can be described thus: MIC against M. tuberculosis strains, agar dilution. The class given is cell-based, Mycobacterium tuberculosis. As to conditions: S. No. 04 Mt-, Middle Brook 7H10 + OADC, 37° C., 14-21 days.
In experiment [3] the test system is M. tuberculosis PC. Description: MIC against M. tuberculosis strains, agar dilution. In kind it is cell-based, Mycobacterium tuberculosis. As to conditions: S. No. 19 Mt-, Middle Brook 7H10 + OADC, 37° C., 14-21 days.
The subject of another experiment is M. tuberculosis 50. The experiment can be described thus: MIC against M. tuberculosis strains, agar dilution. The conditions noted are these: S. No. 12 Mt-, Middle Brook 7H10 + OADC, 37° C., 14-21 days. The class given is cell-based, Mycobacterium tuberculosis.
Experiment [4] relates to M. tuberculosis PC. Description: MIC against M. tuberculosis strains, agar dilution. The class given is cell-based, Mycobacterium tuberculosis. The conditions noted are these: S. No. 20 Mt-, Middle Brook 7H10 + OADC, 37° C., 14-21 days.
In another experiment the test system is M. tuberculosis M-168. Description: MIC against M. tuberculosis strains, agar dilution. The class given is cell-based, Mycobacterium tuberculosis. The conditions noted are these: Middle Brook 7H10 + OADC, 37° C., 14-21 days.
The subject of experiment [5] is M. tuberculosis SGPGI. The experiment can be described thus: MIC against M. tuberculosis strains, agar dilution. In kind it is cell-based, Mycobacterium tuberculosis. As to conditions: S. No. 06 Mt-, Middle Brook 7H10 + OADC, 37° C., 14-21 days.
The next experiment deals with M. tuberculosis PC 4782. Description: MIC against M. tuberculosis strains, agar dilution. The class given is cell-based, Mycobacterium tuberculosis. As to conditions: Middle Brook 7H10 + OADC, 37° C., 14-21 days.
For another experiment, the system named is M. tuberculosis H37Ra. The experiment can be described thus: MIC against M. tuberculosis strains, agar dilution. In kind it is cell-based, Mycobacterium tuberculosis. The conditions noted are these: S. No. 24 Mt-, Middle Brook 7H10 + OADC, 37° C., 14-21 days.
The test system of a further experiment is M avium ATCC 700897. Description: MIC against MAC strains, agar dilution. The class given is cell-based, Mycobacterium avium. As to conditions: S. No. 05 Ma-6, M avium ATCC 700897, Middle Brook 7H10 + OADC, 37° C., 14-21 days.
The subject of experiment [6] is M. intracellulare ATCC 13950. The experiment can be described thus: MIC against MAC strains, agar dilution. In kind it is cell-based. As to conditions: S. No. 06 Mi-1, M. intracellulare ATCC 13950, Middle Brook 7H10 + OADC, 37° C., 14-21 days.
Another experiment relates to M avium ATCC 25291. Description: MIC against MAC strains, agar dilution. The conditions noted are these: S. No. 02 Ma-2, M avium ATCC 25291, Middle Brook 7H10 + OADC, 37° C., 14-21 days. The class given is cell-based, Mycobacterium avium.
Another experiment concerns H. influenzae 1745. The experiment can be described thus: MIC against Haemophilus strains. The class given is cell-based. As to conditions: Haemophilus influenzae; s. No. 9, H. influenzae 1745; read-out: MIC.
In another experiment the test system is S. warnerii ST360. The experiment can be described thus: MIC, agar incorporation method. The class given is cell-based.
In another experiment the test system is H. influenzae 35056. Description: MIC against Haemophilus strains. The conditions noted are these: Haemophilus influenzae; s. No. 1, H. influenzae 35056; read-out: MIC. In kind it is cell-based.
In the next experiment the test system is H. influenzae R. The experiment can be described thus: MIC against Haemophilus strains. In kind it is cell-based. As to conditions: Haemophilus influenzae; s. No. 4, H. influenzae R; read-out: MIC.
The test system of another experiment is H. influenzae ATCC 49247. The experiment can be described thus: MIC against Haemophilus strains. The class given is cell-based. The conditions noted are these: Haemophilus influenzae, ATCC49247; s. No. 2, H. influenzae ATCC 49247; read-out: MIC.
A further experiment relates to H. influenzae 23. Description: MIC against Haemophilus strains. In kind it is cell-based. As to conditions: Haemophilus influenzae; s. No. 5, H. influenzae 23; read-out: MIC.
The test system of another experiment is H. influenzae βIac. Description: MIC against Haemophilus strains. In kind it is cell-based. The conditions noted are these: Haemophilus influenzae; s. No. 3, H. influenzae βIac; read-out: MIC.
Another experiment concerns E. faecalis 5B (VRE). Description: MIC, agar incorporation method. The conditions noted are these: Enterococcus faecalis; S. No. 19, E. faecalis 5B (VRE); read-out: MIC. In kind it is cell-based.
Setting [7] is: Mycobacterium avium, read-out: MIC.
Where [8] appears, read: Mycobacterium tuberculosis, read-out: MIC.

As for `CC[C@H]1OC(=O)[C@H](C)[C@@H](O[C@H]2C[C@@](C)(OC)[C@@H](O)[C@H](C)O2)[C@H](C)[C@@H](O[C@@H]2O[C@H](C)C[C@H](N(C)C)[C@H]2O)[C@](C)(OC)C[C@@H](C)C(=O)[C@H](C)[C@@H](O)[C@]1(C)O` [CLA], the MIC with M. avium AIIMS was 1.0 µg/mL; in the experiment with M. tuberculosis SGPGI [1], 16 µg/mL; with M. intracellulare F21/12 it was 1.0 µg/mL; in [2], 32 µg/mL; with M. avium ATCC 1723, 1.0 µg/mL; in the experiment on M. avium ATCC 49601, under 0.25 µg/mL. Further, the MIC stood at 32 µg/mL with M. tuberculosis H37Rv; 8.0 µg/mL in the experiment with M. tuberculosis PC [3]; 16 µg/mL in the experiment with M. tuberculosis 50; 4.0 µg/mL in the experiment on M. tuberculosis PC [4]; 8.0 µg/mL in the experiment on M. tuberculosis M-168 (S. No. 09 Mt-); 32 µg/mL in the experiment on M. tuberculosis SGPGI [5]. In addition, the MIC with M. tuberculosis PC 4782 (S. No. 21 Mt-) was 16 µg/mL; in the experiment on M. tuberculosis H37Ra it was under 0.25 µg/mL; with M avium ATCC 700897, 2.0 µg/mL; in [6] it was 2.0 µg/mL; in the experiment with M avium ATCC 25291 it was 8.0 µg/mL.

With `CC(=O)NC[C@H]1CN(c2ccc(N3CCN(c4ccc([N+](=O)[O-])s4)CC3)c(F)c2)C(=O)O1` [Compound No. 1, (S)—N-[[3-[3-Fluoro-4-[4-(5-nitro-2-thienyl)-1-piperazinyl]phenyl]-2-oxo-5-oxazolidinyl]methyl]acetamide], the MIC with H. influenzae 1745 came out at 16 µg/mL (≈ 34.5 µM); with M. avium AIIMS (setting [7]), 0.25 µg/mL; in the experiment on S. warnerii ST360 it was 0.125 µg/mL (≈ 0.27 µM); in the experiment on M. tuberculosis SGPGI [1] (setting [8]) it was 0.5 µg/mL; in the experiment on M. intracellulare F21/12 (Mycobacterium intracellulare, read-out: MIC), 0.25 µg/mL; in the experiment with H. influenzae 35056, 8 µg/mL (≈ 17.3 µM). The MIC in the experiment with H. influenzae R was 8 µg/mL (≈ 17.3 µM); in experiment [2] (setting [7]) it was 0.25 µg/mL; with H. influenzae ATCC 49247, 8 µg/mL (≈ 17.3 µM); with M. avium ATCC 1723 (Mycobacterium avium, ATCC1723, read-out: MIC) it was 0.25 µg/mL; with M. avium ATCC 49601 (Mycobacterium avium, ATCC49601, read-out: MIC) it was under 0.125 µg/mL; in the experiment on M. tuberculosis PC [3] (setting [8]), at most 0.125 µg/mL. For the same compound, the MIC in the experiment with H. influenzae 23 is over 16 µg/mL; in the experiment on H. influenzae βIac, 8 µg/mL (≈ 17.3 µM); in the experiment with M. tuberculosis 50 (setting [8]), 2 µg/mL; with M. tuberculosis PC [4] (setting [8]) it was 0.25 µg/mL; with M. tuberculosis M-168 (Mycobacterium tuberculosis, M168, S. No. 09 Mt-, read-out: MIC), 0.25 µg/mL; in the experiment on M. tuberculosis SGPGI [5] (setting [8]), 1 µg/mL. For the same compound, the MIC was 0.125 µg/mL with M. tuberculosis PC 4782 (Mycobacterium tuberculosis, PC4782, S. No. 21 Mt-, read-out: MIC); at most 0.125 µg/mL in the experiment with M. tuberculosis H37Ra (setting [8]); under 0.123 µg/mL with M avium ATCC 700897 (Mycobacterium avium, ATCC700897, read-out: MIC); 0.25 µg/mL (≈ 0.539 µM) in the experiment on E. faecalis 5B (VRE); 16 µg/mL in experiment [6] (Mycobacterium intracellulare, ATCC13950, read-out: MIC); 0.25 µg/mL in the experiment on M avium ATCC 25291 (Mycobacterium avium, ATCC25291, read-out: MIC).

As to `CCc1cc(C(N)=S)ccn1` [ETH], the MIC is 16 µg/mL in the experiment on M. avium AIIMS; over 32 µg/mL in the experiment with M. tuberculosis SGPGI [1]; 8.0 µg/mL in the experiment with M. intracellulare F21/12; 32 µg/mL in [2]; 16 µg/mL with M. avium ATCC 1723; 4.0 µg/mL with M. avium ATCC 49601. Moreover, the MIC entry in the experiment on M. tuberculosis H37Rv was “≦0.125 μg/ml”; in the experiment with M. tuberculosis PC [3], 1.0 µg/mL; in the experiment with M. tuberculosis 50, 32 µg/mL; in the experiment on M. tuberculosis PC [4], 16 µg/mL; with M. tuberculosis M-168 (S. No. 09 Mt-), over 32 µg/mL; with M. tuberculosis SGPGI [5], over 32 µg/mL. The MIC in the experiment with M. tuberculosis PC 4782 (S. No. 21 Mt-) is 1.0 µg/mL; in the experiment with M. tuberculosis H37Ra, 2.0 µg/mL; in the experiment on M avium ATCC 700897, over 32 µg/mL; in [6], 0.5 µg/mL; in the experiment on M avium ATCC 25291, 32 µg/mL.

Take `NNC(=O)c1ccncc1` [INH]: the MIC in the experiment on M. avium AIIMS is over 32 µg/mL; in the experiment on M. tuberculosis SGPGI [1], over 32 µg/mL; in the experiment on M. intracellulare F21/12, 32 µg/mL; in experiment [2] it was 8.0 µg/mL; in the experiment with M. avium ATCC 1723, 32 µg/mL; with M. avium ATCC 49601, over 32 µg/mL. For the same compound, the MIC was 0.125 µg/mL with M. tuberculosis H37Rv; 0.25 µg/mL with M. tuberculosis PC [3]; over 32 µg/mL in the experiment with M. tuberculosis 50; 16 µg/mL in the experiment on M. tuberculosis PC [4]; 4.0 µg/mL in the experiment on M. tuberculosis M-168 (S. No. 09 Mt-); 16 µg/mL with M. tuberculosis SGPGI [5]. The MIC in the experiment with M. tuberculosis PC 4782 (S. No. 21 Mt-) is 0.25 µg/mL; with M. tuberculosis H37Ra, 0.25 µg/mL; in the experiment with M avium ATCC 700897, 4.0 µg/mL; in experiment [6], over 32 µg/mL; in the experiment with M avium ATCC 25291, over 32 µg/mL.
